According to PMC8296573, “Synthesis and Biological Evaluation of Fingolimod Derivatives as Antibacterial Agents” (ACS Omega, 2021):
Converted amounts (≈) assume the structure as drawn. Like-named read-outs stand apart in the source and are kept apart here.

What was measured:
S. aureus ATCC 25923 [1] = test: Antibacterial activity, post-exposure on preformed 18-h-old biofilms; type: cell-based, Staphylococcus aureus; details: for Average inhibition %, biofilms viability / Average inhibition %, planktonic cells viability / inhibition at 25 µM / inhibition at 50 µM / inhibition at 100 µM / inhibition at 200 µM: ± SD; for inhibition at 25 µM / inhibition at 50 µM / inhibition at 100 µM / inhibition at 200 µM: Staphylococcus aureus; for inhibition at 25 µM: ATCC25923, 25 µM; for inhibition at 50 µM: ATCC25923, 50 µM; for inhibition at 100 µM: ATCC25923, 100 µM; for inhibition at 200 µM: ATCC25923, 200 µM
Summary of the method: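 Biofilms grown 18 h without compound, medium then replaced and compound added for a further 24 h. Planktonic OD and resazurin (20 μM final) fluorescence (ex 560/em 590 nm) read; washed biofilms stained with 20 μM resazurin 30 min at 37 °C, then ethanol-fixed and crystal violet-stained, absorbance 595 nm.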

S. aureus ATCC 25923 [2] = test: Antibacterial activity, pre-exposure (planktonic cells and biofilm formation); type: cell-based, Staphylococcus aureus; details: for MIC / inhibition at 5 µM / inhibition at 10 µM / inhibition at 15 µM / inhibition at 25 µM: Staphylococcus aureus, ATCC25923; for inhibition at 5 µM / inhibition at 10 µM / inhibition at 15 µM / inhibition at 25 µM / Average inhibition %, biofilms viability / Average inhibition %, planktonic cells viability: pre-exposure, ± SD
Summary of the method: (§1)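 Compounds in DMSO were plated before bacteria were added (pre-exposure) and incubated 18 h aerobically at 37 °C with shaking. Planktonic cells were read by OD and resazurin fluorescence (20 μM final; ex 560/em 590 nm). Biofilms were read by resazurin, then crystal violet (A595) for total biomass.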

A. baumannii NCTC 13423 = test: Antibacterial activity, pre-exposure; type: cell-based, Acinetobacter baumannii; details: for Average inhibition %, biofilms viability / Average inhibition %, planktonic cells viability / inhibition at 10 µM / inhibition at 15 µM / inhibition at 25 µM / inhibition at 50 µM: A. baumannii NCTC 13423, pre-exposure, ± SD; for inhibition at 10 µM / inhibition at 15 µM / inhibition at 25 µM / inhibition at 50 µM / MIC: Acinetobacter baumannii, NCTC13423
Summary of the method: as §1

P. aeruginosa ATCC 9027 = test: Antibacterial activity, pre-exposure; type: cell-based, Pseudomonas aeruginosa; details: for Average inhibition %, biofilms viability / Average inhibition %, planktonic cells viability / inhibition at 50 µM / inhibition at 100 µM / inhibition at 150 µM / inhibition at 200 µM: P. aeruginosa ATCC 9027, pre-exposure, ± SD; for MIC / inhibition at 50 µM / inhibition at 100 µM / inhibition at 150 µM / inhibition at 200 µM: Pseudomonas aeruginosa; for inhibition at 50 µM / inhibition at 100 µM / inhibition at 150 µM / inhibition at 200 µM: ATCC9027
Summary of the method: as §1

[3] = read-out: Average inhibition %, biofilms biomass
[4] = read-out: Average inhibition %, planktonic cells turbidity
[5] = 10 µM, read-out: Average inhibition %, biofilms biomass
[6] = 10 µM, read-out: Average inhibition %, planktonic cells turbidity
[7] = 15 µM, read-out: Average inhibition %, biofilms biomass
[8] = 15 µM, read-out: Average inhibition %, planktonic cells turbidity
[9] = 25 µM, read-out: Average inhibition %, biofilms biomass
[10] = 25 µM, read-out: Average inhibition %, planktonic cells turbidity
[11] = 50 µM, read-out: Average inhibition %, biofilms biomass
[12] = 50 µM, read-out: Average inhibition %, planktonic cells turbidity

For CCCCCCCCc1ccc(CC(N)(CO)CO)cc1 [Compound 44, 2-Amino-2-(4-octylbenzyl)propane-1,3-diol], the “Average inhibition %, biofilms viability” value (S. aureus ATCC 25923 [1]; 25 µM) was 21 ± 11.5%, the “Average inhibition %, planktonic cells viability” value (S. aureus ATCC 25923 [1]; 25 µM) was 3.8 ± 6.6% and the “Average inhibition %, biofilms viability” value (S. aureus ATCC 25923 [1]; 50 µM) was 38.2 ± 8.2%. The “Average inhibition %, planktonic cells viability” value (S. aureus ATCC 25923 [1]; 50 µM) was 56.1 ± 15.4%, the “Inhibition of viability and total biomass of preformed biofilms” value (S. aureus ATCC 25923 [1]; 100 μM) was “at least 70%” and the “Average inhibition %, biofilms viability” value (S. aureus ATCC 25923 [1]; 100 µM) was 74 ± 21.5%. The “Average inhibition %, planktonic cells viability” value (S. aureus ATCC 25923 [1]; 100 µM) was 99.8 ± 0.6%, the “Average inhibition %, biofilms viability” value (S. aureus ATCC 25923 [1]; 200 µM) was 98.5 ± 0.1% and the “Average inhibition %, planktonic cells viability” value (S. aureus ATCC 25923 [1]; 200 µM) was 100.1 ± 0.1%. It also gave an inhibition at 25 µM (S. aureus ATCC 25923 [1]; [3]) of 36 ± 3.3%, an inhibition at 25 µM (S. aureus ATCC 25923 [1]; [4]) of 6.1 ± 10.6% and an inhibition at 50 µM (S. aureus ATCC 25923 [1]; [3]) of 51.6 ± 10.7%. For the same compound, the inhibition at 50 µM (S. aureus ATCC 25923 [1]; [4]) was 58.6 ± 10.2%, the inhibition at 100 µM (S. aureus ATCC 25923 [1]; [3]) was 70.5 ± 19.2% and the inhibition at 100 µM (S. aureus ATCC 25923 [1]; [4]) was 84.7 ± 3.3%. It also gave an inhibition at 200 µM (S. aureus ATCC 25923 [1]; [3]) of 92 ± 1.2%, an inhibition at 200 µM (S. aureus ATCC 25923 [1]; [4]) of 85.9 ± 5.3% and an MIC (S. aureus ATCC 25923 [2]; lowest concentration with no visible growth (>90% inhibition of turbidity and viability of planktonic cells), 18 h, read-out: MIC S. aureus ATCC 25923) of 15 to 25 µM (≈ 4.4 to 7.34 µg/mL). For the same compound, the inhibition at 5 µM (S. aureus ATCC 25923 [2]; 5 µM, read-out: Average inhibition %, biofilms biomass) was 23.2 ± 23.4%, the inhibition at 5 µM (S. aureus ATCC 25923 [2]; 5 µM, read-out: Average inhibition %, planktonic cells turbidity) was 18.4 ± 6.2% and the inhibition at 10 µM (S. aureus ATCC 25923 [2]; [5]) was 36.6 ± 27.8%. It also gave an inhibition at 10 µM (S. aureus ATCC 25923 [2]; [6]) of 31.2 ± 8.9%, an inhibition at 15 µM (S. aureus ATCC 25923 [2]; [7]) of 76.6 ± 21.5% and an inhibition at 15 µM (S. aureus ATCC 25923 [2]; [8]) of 79.2 ± 28.2%. The inhibition at 25 µM (S. aureus ATCC 25923 [2]; [9]) was 93.1 ± 4.2%, the inhibition at 25 µM (S. aureus ATCC 25923 [2]; [10]) was 99.1 ± 0.7% and the MIC (S. aureus ATCC 25923 [2]; read-out: MIC (S. aureus)) was 15 to 25 µM (≈ 4.4 to 7.34 µg/mL). The “Average inhibition %, biofilms viability” value (S. aureus ATCC 25923 [2]; 5 µM) was 24.9 ± 12.6%, the “Average inhibition %, planktonic cells viability” value (S. aureus ATCC 25923 [2]; 5 µM) was 0 ± 0% and the “Average inhibition %, biofilms viability” value (S. aureus ATCC 25923 [2]; 10 µM) was 44.4 ± 4.9%. The “Average inhibition %, planktonic cells viability” value (S. aureus ATCC 25923 [2]; 10 µM) was 0 ± 0%, the “Average inhibition %, biofilms viability” value (S. aureus ATCC 25923 [2]; 15 µM) was 76.2 ± 29.5% and the “Average inhibition %, planktonic cells viability” value (S. aureus ATCC 25923 [2]; 15 µM) was 66.8 ± 54.1%. The “Average inhibition %, biofilms viability” value (S. aureus ATCC 25923 [2]; 25 µM) was 99.7 ± 0%, the “Average inhibition %, planktonic cells viability” value (S. aureus ATCC 25923 [2]; 25 µM) was 100 ± 0.2% and the “Average inhibition %, biofilms viability” value (A. baumannii NCTC 13423; 10 µM) was 0.6 ± 1%. For the same compound, the “Average inhibition %, planktonic cells viability” value (A. baumannii NCTC 13423; 10 µM) was 12.3 ± 2.4%, the “Average inhibition %, biofilms viability” value (A. baumannii NCTC 13423; 15 µM) was 8.6 ± 7.8% and the “Average inhibition %, planktonic cells viability” value (A. baumannii NCTC 13423; 15 µM) was 9.2 ± 5.8%. The “Average inhibition %, biofilms viability” value (A. baumannii NCTC 13423; 25 µM) was 88.7 ± 15.2%, the “Average inhibition %, planktonic cells viability” value (A. baumannii NCTC 13423; 25 µM) was 83.5 ± 27.6% and the “Average inhibition %, biofilms viability” value (A. baumannii NCTC 13423; 50 µM) was 99.9 ± 1%. For the same compound, the “Average inhibition %, planktonic cells viability” value (A. baumannii NCTC 13423; 50 µM) was 99.8 ± 0.5%, the inhibition at 10 µM (A. baumannii NCTC 13423; [5]) was 0% and the inhibition at 10 µM (A. baumannii NCTC 13423; [6]) was 0%. It also gave an inhibition at 15 µM (A. baumannii NCTC 13423; [7]) of 5.6 ± 6.5%, an inhibition at 15 µM (A. baumannii NCTC 13423; [8]) of 2.8 ± 3.7% and an inhibition at 25 µM (A. baumannii NCTC 13423; [9]) of 69.4 ± 13.7%. It also gave an inhibition at 25 µM (A. baumannii NCTC 13423; [10]) of 88.1 ± 19%, an inhibition at 50 µM (A. baumannii NCTC 13423; [11]) of 86.2 ± 2.3% and an inhibition at 50 µM (A. baumannii NCTC 13423; [12]) of 98.3 ± 1.2%. For the same compound, the MIC (A. baumannii NCTC 13423; pre-exposure, Inactive = no activity up to 50 μM, > = some inhibition but no MIC reached, read-out: MIC A. baumannii NCTC 13423) was 25 to 50 µM (≈ 7.34 to 14.7 µg/mL), the MIC (A. baumannii NCTC 13423; supplementary molecular formula strings sheet, read-out: MIC (A. baumannii)) was 25 to 50 µM (≈ 7.34 to 14.7 µg/mL) and the “Average inhibition %, biofilms viability” value (P. aeruginosa ATCC 9027; 50 µM) was 9 ± 8%. For the same compound, the “Average inhibition %, planktonic cells viability” value (P. aeruginosa ATCC 9027; 50 µM) was 31.4 ± 12.8%, the “Average inhibition %, biofilms viability” value (P. aeruginosa ATCC 9027; 100 µM) was 43 ± 44.4% and the “Average inhibition %, planktonic cells viability” value (P. aeruginosa ATCC 9027; 100 µM) was 95.8 ± 3.5%. For the same compound, the “Average inhibition %, biofilms viability” value (P. aeruginosa ATCC 9027; 150 µM) was 42.2 ± 50.3%, the “Average inhibition %, planktonic cells viability” value (P. aeruginosa ATCC 9027; 150 µM) was 92.1 ± 9.3% and the “Average inhibition %, biofilms viability” value (P. aeruginosa ATCC 9027; 200 µM) was 34.5 ± 36.6%. For the same compound, the “Average inhibition %, planktonic cells viability” value (P. aeruginosa ATCC 9027; 200 µM) was 88.7 ± 10.2%, the MIC (P. aeruginosa ATCC 9027; ATCC9027, pre-exposure, Inactive = no activity up to 200 μM, > = some inhibition but no MIC reached, read-out: MIC P. aeruginosa ATCC 9027) was greater than 200 µM and the MIC (P. aeruginosa ATCC 9027; ATCC9027, supplementary molecular formula strings sheet, read-out: MIC (P. aeruginosa)) was greater than 200 µM. For the same compound, the inhibition at 50 µM (P. aeruginosa ATCC 9027; [11]) was 35.2 ± 19.9%, the inhibition at 50 µM (P. aeruginosa ATCC 9027; [12]) was 28.4 ± 10.9% and the inhibition at 100 µM (P. aeruginosa ATCC 9027; 100 µM, read-out: Average inhibition %, biofilms biomass) was 57.7 ± 30.4%. It also gave an inhibition at 100 µM (P. aeruginosa ATCC 9027; 100 µM, read-out: Average inhibition %, planktonic cells turbidity) of 93.7 ± 2.6%, an inhibition at 150 µM (P. aeruginosa ATCC 9027; 150 µM, read-out: Average inhibition %, biofilms biomass) of 54.7 ± 35.2% and an inhibition at 150 µM (P. aeruginosa ATCC 9027; 150 µM, read-out: Average inhibition %, planktonic cells turbidity) of 92.2 ± 4.8%. The inhibition at 200 µM (P. aeruginosa ATCC 9027; 200 µM, read-out: Average inhibition %, biofilms biomass) was 48.7 ± 28.5% and the inhibition at 200 µM (P. aeruginosa ATCC 9027; 200 µM, read-out: Average inhibition %, planktonic cells turbidity) was 88.5 ± 4.4%.
